In PubChem BioAssay (NCI):
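Protocol summary: plate cells (96-well), add compound at 5 concentrations, incubate 48 h, interpolate endpoints linearly. Definition used: TGI = concentration required for complete inhibition of growth.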

Columns and labels:
Test in all cases: NCI-60 cell line screen, 48 h
[1] = test system: MOLT-4 leukemia
[2] = test system: HL-60(TB) leukemia
[3] = test system: TK-10 renal
[4] = test system: HOP-92 NSCLC
[5] = test system: MALME-3M melanoma
[6] = test system: NCI-H522 lung
[7] = test system: SF-539 CNS
[8] = test system: IGROV1 ovarian
[9] = test system: M19-MEL melanoma
[10] = test system: SW-620 colon
[11] = test system: CCRF-CEM leukemia
[12] = test system: LXFL 529 NSCLC
[13] = test system: DMS 273 small cell lung
[14] = test system: HCT-15 colon
[15] = test system: U251 CNS
[16] = test system: EKVX NSCLC
[17] = test system: SK-MEL-28 melanoma
[18] = test system: 786-0 renal
[19] = test system: COLO 205 colon
[20] = test system: NCI-H460 lung
[21] = test system: SNB-78 CNS
[22] = test system: ACHN renal
[23] = test system: SK-MEL-5 melanoma
[24] = test system: SF-295 CNS
[25] = test system: K-562 leukemia
[26] = test system: OVCAR-4 ovarian
[27] = test system: SNB-75 CNS
[28] = test system: OVCAR-3 ovarian
[29] = test system: HCC-2998 colon
[30] = test system: NCI-H23 lung
[31] = test system: UACC-62 melanoma
[32] = test system: SF-268 CNS
[33] = test system: XF 498 CNS
[34] = test system: SNB-19 CNS
[35] = test system: M14 melanoma
[36] = test system: DLD-1 colon
[37] = test system: NCI-H226 lung
[38] = test system: RXF 393 renal
[39] = test system: HT29 colon
[40] = test system: HCT-116 colon
[41] = test system: SN12C renal
[42] = test system: OVCAR-8 ovarian
[43] = test system: HOP-62 NSCLC
[44] = test system: OVCAR-5 ovarian
[45] = test system: RPMI-8226 leukemia
[46] = test system: DMS 114 small cell lung
[47] = test system: CAKI-1 renal
[48] = test system: SK-MEL-2 melanoma
[49] = test system: A549 NSCLC
[50] = test system: SK-OV-3 ovarian
[51] = test system: KM12 colon
[52] = test system: UO-31 renal
[53] = test system: SR leukemia
[54] = test system: KM20L2 colon
[55] = test system: LOX IMVI melanoma
[56] = test system: MDA-MB-435
[57] = test system: MCF7 breast
[58] = test system: BT-549 breast
[59] = test system: HS 578T breast
[60] = test system: DU-145 prostate
[61] = test system: MDA-MB-231 breast
[62] = test system: NCI/ADR-RES ovarian
[63] = test system: MDA-N
[64] = test system: T-47D breast
[65] = test system: A498 renal
[66] = test system: UACC-257 melanoma
[67] = test system: PC-3 prostate

## COc1ccc(/C(Cl)=C(\c2ccc(OCCN(C)C)cc2)c2ccc(OC(=O)C(C)(C)C)cc2)cc1
[1]
  TGI: 14.7 µM
[2]
  TGI: 21.1 µM
[3]
  TGI: 32.3 µM
[4]
  TGI: 34 µM
[5]
  TGI: 30 µM
[6]
  TGI: 28.6 µM
[7]
  TGI: 26.8 µM
[8]
  TGI: 32.9 µM
[9]
  TGI: 26.6 µM
[10]
  TGI: 28.6 µM
[11]
  TGI: 24.9 µM
[12]
  TGI: 27 µM
[13]
  TGI: 17.5 µM
[14]
  TGI: 22.4 µM
[15]
  TGI: 26.5 µM
[16]
  TGI: 26.6 µM
[17]
  TGI: 23.1 µM
[18]
  TGI: 22.6 µM
[19]
  TGI: 26.8 µM
[20]
  TGI: 28.7 µM
[21]
  TGI: 33.2 µM
[22]
  TGI: 29.5 µM
[23]
  TGI: 27 µM
[24]
  TGI: 28 µM
[25]
  TGI: 14.3 µM
[26]
  TGI: 26.9 µM
[27]
  TGI: 21.9 µM
[28]
  TGI: 28.5 µM
[29]
  TGI: 29.2 µM
[30]
  TGI: 29.1 µM
[31]
  TGI: 28 µM
[32]
  TGI: 28.2 µM
[33]
  TGI: 23.7 µM
[34]
  TGI: 29.5 µM
[35]
  TGI: 12.1 µM
[36]
  TGI: 26.6 µM
[37]
  TGI: 25.7 µM
[38]
  TGI: 21.7 µM
[39]
  TGI: 11.5 µM
[40]
  TGI: 24.4 µM
[41]
  TGI: 27.2 µM
[42]
  TGI: 30.4 µM
[43]
  TGI: 30.5 µM
[44]
  TGI: 29.1 µM
[45]
  TGI: 30.9 µM
[46]
  TGI: 24.6 µM
[47]
  TGI: 27.8 µM
[48]
  TGI: 29.4 µM
[49]
  TGI: 28.3 µM
[50]
  TGI: 24.4 µM
[51]
  TGI: 26.4 µM
[52]
  TGI: 19.3 µM
[53]
  TGI: 21.8 µM
[54]
  TGI: 12.4 µM
[55]
  TGI: 19.4 µM

## CC1=CC(C)C(C)N(CCNS(=O)(=O)c2ccc(C)cc2)c2ccccc21 (configuration not stated)
[1]
  TGI: 23.5 µM
[56]
  TGI: 18.9 µM
[57]
  TGI: 19.8 µM
[2]
  TGI: 22.8 µM
[3]
  TGI: > 82.8 µM
[4]
  TGI: 36.1 µM
[5]
  TGI: 23 µM
[6]
  TGI: 61.1 µM
[58]
  TGI: 31.7 µM
[7]
  TGI: 18.1 µM
[59]
  TGI: 20.7 µM
[8]
  TGI: 23.4 µM
[60]
  TGI: 24.7 µM
[61]
  TGI: 24.2 µM
[11]
  TGI: 25.6 µM
[62]
  TGI: 29.5 µM
[63]
  TGI: 18.8 µM
[14]
  TGI: > 31.6 µM
[15]
  TGI: 31.7 µM
[16]
  TGI: > 31.6 µM
[17]
  TGI: 17.9 µM
[18]
  TGI: 20.8 µM
[19]
  TGI: 17.3 µM
[20]
  TGI: 19.2 µM
[22]
  TGI: 29.2 µM
[24]
  TGI: 19.5 µM
[64]
  TGI: 22.3 µM
[25]
  TGI: 27.5 µM
[26]
  TGI: 22.3 µM
[27]
  TGI: 23.4 µM
[28]
  TGI: 17.1 µM
[29]
  TGI: 30.2 µM
[30]
  TGI: 26.9 µM
[31]
  TGI: 17.2 µM
[32]
  TGI: 19.6 µM
[34]
  TGI: > 31.6 µM
[65]
  TGI: 19.2 µM
[35]
  TGI: 17.5 µM
[37]
  TGI: 17.8 µM
[38]
  TGI: 17.7 µM
[39]
  TGI: 17.4 µM
[40]
  TGI: 17.7 µM
[41]
  TGI: 17.1 µM
[42]
  TGI: 24 µM
[66]
  TGI: 34.2 µM
[67]
  TGI: 30.5 µM
[43]
  TGI: 27 µM
[44]
  TGI: 31.1 µM
[45]
  TGI: 22.3 µM
[47]
  TGI: > 31.6 µM
[48]
  TGI: 18 µM
[49]
  TGI: > 31.6 µM
[50]
  TGI: > 100 µM
[51]
  TGI: 37.3 µM
[52]
  TGI: > 31.6 µM
[53]
  TGI: > 31.6 µM
[55]
  TGI: 17 µM
